# Test results as given in US12077503B2, “Substituted cyclic amides and their use as herbicides” (FMC CORPORATION, priority 2015, dated 2024).
# Columns and labels:
# Type in all cases: in vivo
# [1] = tested on: barnyardgrass (Echinochloa crus-galli); assay: Test B flooded paddy test; details: Echinochloa crus-galli, 250 g ai/ha, Flood; 0 to 100 scale where 0 is no effect and 100 is complete control; read-out: Barnyardgrass plant response rating
# Method in brief: (§1)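 Rating scale 0–100 (visual, vs untreated controls) after a 13–15 d greenhouse period; application to the flood layer, 3 cm above soil and maintained; plants at 2-leaf stage when treated.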
# [2] = tested on: ducksalad (Heteranthera limosa); assay: Test B flooded paddy test; details: Heteranthera limosa, 250 g ai/ha, Flood; 0 to 100 scale where 0 is no effect and 100 is complete control; read-out: Ducksalad plant response rating
# Method in brief: as §1
# [3] = tested on: sedge, umbrella (small-flower umbrella sedge, Cyperus difformis); assay: Test B flooded paddy test; details: Cyperus difformis, 250 g ai/ha, Flood; 0 to 100 scale where 0 is no effect and 100 is complete control; read-out: Sedge, Umbrella plant response rating
# Method in brief: as §1
# rice (Oryra sativa) = assay: Test B flooded paddy test; details: Oryza sativa, 250 g ai/ha, Flood; 0 to 100 scale where 0 is no effect and 100 is complete control; read-out: Rice plant response rating
# Method in brief: as §1
# [4] = tested on: pigweed (Amaranthus retroflexus); assay: Test A preemergence; details: Amaranthus retroflexus, pre-emergence, 240 h
# [5] = tested on: ragweed (common ragweed, Ambrosia elatior); assay: Test A preemergence; details: Ambrosia artemisiifolia, pre-emergence, 240 h
# Method in brief: (§2)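 Ratings of 0 (no effect) to 100 (complete control) come from visual comparison with untreated controls roughly 10 d after treatment. Test chemicals, formulated in a non-phytotoxic solvent mixture with surfactant, were applied either as a preemergence directed soil spray on seeded soil or postemergence to one- to two-leaf plants 2 to 10 cm tall.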
# [6] = tested on: barnyardgrass (Echinochloa crus-galli); assay: Test A preemergence; details: Echinochloa crus-galli, pre-emergence, 240 h
# Method in brief: as §2
# [7] = tested on: giant foxtail (Setaria faberii); assay: Test A preemergence; details: Setaria faberi, pre-emergence, 240 h
# Method in brief: as §2
# [8] = tested on: ryegrass, Italian (Italian ryegrass, Lolium multiflorum); assay: Test A preemergence; details: Lolium multiflorum, pre-emergence, 240 h
# Method in brief: as §2
# Kochia (Kochia scoparia) [9] = assay: Test A preemergence; details: Bassia scoparia, pre-emergence, 240 h
# Method in brief: as §2
# [10] = tested on: pigweed (Amaranthus retroflexus); assay: Test A postemergence; details: Amaranthus retroflexus, post-emergence, 240 h, read-out: Plant response rating, Pigweed
# Method in brief: as §2
# [11] = tested on: ragweed (common ragweed, Ambrosia elatior); assay: Test A postemergence; details: Ambrosia artemisiifolia, post-emergence, 240 h, read-out: Plant response rating, Ragweed
# Method in brief: as §2
# [12] = tested on: barnyardgrass (Echinochloa crus-galli); assay: Test A postemergence; details: Echinochloa crus-galli, post-emergence, 240 h, read-out: Plant response rating, Barnyardgrass
# Method in brief: as §2
# [13] = tested on: giant foxtail (Setaria faberii); assay: Test A postemergence; details: Setaria faberi, post-emergence, 240 h, read-out: Plant response rating, Foxtail, Giant
# Method in brief: as §2
# corn (Zea mays) = assay: Test A postemergence; details: Zea mays, post-emergence, 240 h
# Method in brief: as §2
# [14] = tested on: blackgrass (Alopecurus myosuroides); assay: Test A postemergence; details: Alopecurus myosuroides, post-emergence, 240 h, read-out: Plant response rating, Blackgrass
# Method in brief: as §2
# [15] = tested on: ryegrass, Italian (Italian ryegrass, Lolium multiflorum); assay: Test A postemergence; details: Lolium multiflorum, post-emergence, 240 h, read-out: Plant response rating, Ryegrass, Italian
# Method in brief: as §2
# [16] = tested on: Galium (catchweed bedstraw, Galium aparine); assay: Test A postemergence; details: Galium, post-emergence, 240 h, read-out: Plant response rating, Galium
# Method in brief: as §2
# [17] = tested on: wheat (Triticum aestivum); assay: Test A postemergence; details: Triticum aestivum, post-emergence, 240 h, read-out: Plant response rating, Wheat
# Method in brief: as §2
# Kochia (Kochia scoparia) [18] = assay: Test A postemergence; details: Bassia scoparia, post-emergence, 240 h, read-out: Plant response rating, Kochia
# Method in brief: as §2
# [19] = 125 g ai/ha, Postemergence, visual injury after approximately 10 d, 0 to 100 scale where 0 is no effect and 100 is complete control
# [20] = 500 g ai/ha, postemergence, visual injury, 0 to 100 scale (0 no effect, 100 complete control), approx. 10 d
smiles,measurement,setting,value
CN1CC[C@H](c2ccc(OC(F)(F)F)cc2)[C@@H](C(=O)Nc2cccc(Cl)c2F)C1=O [Compound 1002],pest or weed control at 250 g/ha,[1],0%
same,pest or weed control at 250 g/ha,[2],60%
same,pest or weed control at 250 g/ha,[3],0%
same,pest or weed control at 250 g/ha,rice (Oryra sativa),0%
same,pest or weed control at 125 g/ha,"[4]; 125 g ai/ha, Preemergence, visual injury rating after approximately 10 d, read-out: Pigweed plant response rating (0 to 100 scale, 0 is no effect, 100 is complete control)",20%
same,pest or weed control at 500 g/ha,"[4]; 500 g ai/ha, preemergence, visual injury rating about 10 d after treatment, 0 to 100 scale (0 no effect, 100 complete control), read-out: Pigweed plant response rating",50%
same,pest or weed control at 125 g/ha,"[5]; 125 g ai/ha, Preemergence, visual injury rating after approximately 10 d, read-out: Ragweed plant response rating (0 to 100 scale, 0 is no effect, 100 is complete control)",0%
same,pest or weed control at 500 g/ha,"[5]; 500 g ai/ha, preemergence, visual injury rating about 10 d after treatment, 0 to 100 scale (0 no effect, 100 complete control), read-out: Ragweed plant response rating",0%
same,pest or weed control at 125 g/ha,"[6]; 125 g ai/ha, Preemergence, visual injury rating after approximately 10 d, read-out: Barnyardgrass plant response rating (0 to 100 scale, 0 is no effect, 100 is complete control)",20%
same,pest or weed control at 500 g/ha,"[6]; 500 g ai/ha, preemergence, visual injury rating about 10 d after treatment, 0 to 100 scale (0 no effect, 100 complete control), read-out: Barnyardgrass plant response rating",70%
same,pest or weed control at 125 g/ha,"[7]; 125 g ai/ha, Preemergence, visual injury rating after approximately 10 d, read-out: Foxtail, Giant plant response rating (0 to 100 scale, 0 is no effect, 100 is complete control)",30%
same,pest or weed control at 500 g/ha,"[7]; 500 g ai/ha, preemergence, visual injury rating about 10 d after treatment, 0 to 100 scale (0 no effect, 100 complete control), read-out: Foxtail, Giant plant response rating",80%
same,pest or weed control at 125 g/ha,"[8]; 125 g ai/ha, Preemergence, visual injury rating after approximately 10 d, read-out: Ryegrass, Italian plant response rating (0 to 100 scale, 0 is no effect, 100 is complete control)",0%
same,pest or weed control at 500 g/ha,"[8]; 500 g ai/ha, preemergence, visual injury rating about 10 d after treatment, 0 to 100 scale (0 no effect, 100 complete control), read-out: Ryegrass, Italian plant response rating",0%
same,pest or weed control at 125 g/ha,"Kochia (Kochia scoparia) [9]; 125 g ai/ha, Preemergence, visual injury rating after approximately 10 d, read-out: Kochia plant response rating (0 to 100 scale, 0 is no effect, 100 is complete control)",0%
same,pest or weed control at 500 g/ha,"Kochia (Kochia scoparia) [9]; 500 g ai/ha, preemergence, visual injury rating about 10 d after treatment, 0 to 100 scale (0 no effect, 100 complete control), read-out: Kochia plant response rating",0%
same,pest or weed control at 125 g/ha,[10]; [19],0%
same,pest or weed control at 500 g/ha,[10]; [20],0%
same,pest or weed control at 125 g/ha,[11]; [19],0%
same,pest or weed control at 500 g/ha,[11]; [20],0%
same,pest or weed control at 125 g/ha,[12]; [19],50%
same,pest or weed control at 500 g/ha,[12]; [20],90%
same,pest or weed control at 125 g/ha,[13]; [19],0%
same,pest or weed control at 500 g/ha,[13]; [20],50%
same,"Corn plant response rating (crop injury, 0 = no effect, 100 = complete kill) at 125 g/ha",corn (Zea mays); [19],0%
same,"Corn plant response rating (crop injury, 0 = no effect, 100 = complete kill) at 500 g/ha",corn (Zea mays); [20],0%
same,pest or weed control at 125 g/ha,[14]; [19],0%
same,pest or weed control at 500 g/ha,[14]; [20],0%
same,pest or weed control at 125 g/ha,[15]; [19],0%
same,pest or weed control at 500 g/ha,[15]; [20],0%
same,pest or weed control at 125 g/ha,[16]; [19],0%
same,pest or weed control at 500 g/ha,[16]; [20],0%
same,plant injury at 125 g/ha,[17]; [19],0%
same,plant injury at 500 g/ha,[17]; [20],0%
same,pest or weed control at 125 g/ha,Kochia (Kochia scoparia) [18]; [19],0%
same,pest or weed control at 500 g/ha,Kochia (Kochia scoparia) [18]; [20],40%
